The test system of one assay is HTT mRNA. Briefly: RT-qPCR splicing assay, HTT mRNA canonical (CJ) and alternative (AJ) junction. The conditions noted are these: Homo sapiens. It is filed as cell-based, human. In a few lines:
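A673 or K562 cells treated 24 h at 37 °C with an 11-point 3-fold dilution series (top 10 uM, DMSO ≤0.25%). Lysates went directly to one-step RT-qPCR quantifying canonical (CJ) and alternative-exon (AJ) junctions, normalized to GAPDH, GUSB or PPIA. Values from ΔΔCt versus DMSO, RQ = 2^(−ΔΔCt), expressed as percentage response.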

The next assay has as its system MYB. Briefly: HiBiT protein abundance assay, MYB (K562 HiBiT knock-in). The format is cell-based, human. The settings on record: HiBiT knock-in K562 cells, 24 hours, top dose 10 μM. Summed up:
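Tagged-protein levels were measured as HiBiT/LgBiT luminescence in lysed K562 knock-in cells exposed to serially diluted compound (up to 10 μM final) for 24 hours. A four-parameter logistic regression of control-normalized signal yielded the IC50.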
For orientation: The HiBiT peptide binds its large partner to form an active luciferase.

[1] abbreviates: RT-qPCR, HTT alternative junction mRNA increase, read-out: HTT AJ (increase in alternative junction mRNA, AC50).
[2] abbreviates: RT-qPCR, HTT canonical junction mRNA decrease, read-out: HTT CJ (decrease in canonical junction mRNA, IC50).
Setting [3] is: canonical junction qPCR panel, Table 4, read-out: HTT IC50 (decrease in CJ mRNA levels).
Where [4] appears, read: HTT alternative junction mRNA, RT-qPCR, read-out: HTT AJ (increase in AJ mRNA, AC50).
[5] abbreviates: HTT canonical junction mRNA, RT-qPCR, read-out: HTT CJ (decrease in CJ mRNA levels, IC50).

Counter-ions that a name gives are not always drawn. Like-named read-outs stand apart in the source and are kept apart here.

In patent US20250092065A1, “2-(INDAZOL-5-YL)-6-(PIPERIDIN-4-YL)-1,7-NAPHTHYRIDINE DERIVATIVES AND RELATED COMPOUNDS AS MODULATORS FOR SPLICING NUCLEIC ACIDS AND FOR THE TREATMENT OF PROLIFERATIVE DISEASES” (REMIX THERAPEUTICS INC., priority 2022, published 2025) one finds AC50 and IC50 data, which are given here for 21 molecules.

The AC50 is the concentration at which the activity in the assay is half-maximal. As a reminder, the IC50 is the midpoint of a concentration-inhibition curve. In the case of `C[C@H]1CN(c2cc(F)c3nc(-c4cc(F)c5nn(C)cc5c4)ccc3c2)C[C@H](C)N1` (single isomer, unassigned) [Compound 760], in the assay on HTT mRNA (setting [1]), the half-maximal activity concentration (AC50) was 100 to 1000 nM. Moreover, the half-maximal inhibitory concentration (IC50) in the assay on HTT mRNA (setting [2]), with HTT mRNA (setting [3]) and in the assay with MYB was less than 100 nM each time.
For the molecule `C[C@H]1CN(c2cc(F)c3nc(-c4cc5cn(C)nc5cc4O)ccc3c2)C[C@H](C)N1` (single isomer, unassigned) [Compound 770], in the assay with HTT mRNA (setting [1]), the AC50 fell in the range of 100 to 1000 nM. The results for the IC50 in the assay with HTT mRNA (setting [2]), with HTT mRNA (setting [3]) and in the assay on MYB were 100 to 1000 nM, 100 to 1000 nM and less than 100 nM, respectively.
As for `Cc1cn2nc(-c3ccc4cc(N5C[C@H](C)N[C@@H](C)C5)cc(F)c4n3)cc(C)c2n1` (single isomer, unassigned) [Compound 799], the AC50 with HTT mRNA (setting [1]) was 100 to 1000 nM. For the same molecule, the IC50 in the assay with HTT mRNA (setting [2]), with HTT mRNA (setting [3]) and in the assay on MYB was 100 to 1000 nM each time.
For the molecule `Cc1c(O)c(-c2ccc3cc(N4C[C@H](C)N[C@@H](C)C4)cc(F)c3n2)cc2cn(C)nc12` (single isomer, unassigned) [Compound 800, 2,2,2-trifluoroacetate], in the assay on HTT mRNA (setting [1]), the concentration at half-maximal activity (AC50) was less than 100 nM. Also, the IC50 in the assay on HTT mRNA (setting [2]), in the assay with HTT mRNA (setting [3]) and in the assay on MYB was less than 100 nM in each case.
With `Cc1nc(-c2cc3cn(C)nc3cc2O)nc2ccc(N3C[C@H](C)N[C@@H](C)C3)cc12` (single isomer, unassigned) [Compound 806], the half-maximal activity concentration (AC50) in the assay on HTT mRNA (setting [1]) was in the range of 1000 to 10000 nM. Moreover, the IC50 with HTT mRNA (setting [2]) was greater than 10000 nM; in the assay with HTT mRNA (setting [3]) it was greater than 10000 nM; in the assay on MYB, less than 100 nM.
`Cc1nc(-c2cc3cn(C)nc3c(C)c2O)nc2ccc(N3C[C@H](C)N[C@@H](C)C3)cc12` (single isomer, unassigned) [Compound 807]: the concentration at half-maximal activity (AC50) in the assay with HTT mRNA (setting [1]) lay in the range of 1000 to 10000 nM. For the same molecule, the IC50 is greater than 10000 nM with HTT mRNA (setting [2]), greater than 10000 nM in the assay with HTT mRNA (setting [3]) and less than 100 nM in the assay on MYB.
Regarding `Cn1cc2cc(-c3cc4ccc(C5CCNCC5)nc4cn3)c(O)cc2n1` [Compound 104], the concentration at half-maximal activity (AC50) in the assay on HTT mRNA (setting [4]) lay in the range of 1000 to 10000 nM. The IC50 in the assay with HTT mRNA (setting [5]), with HTT mRNA (setting [3]) and in the assay with MYB was 1000 to 10000 nM in each case.
In the case of `Cn1cc2cc(-c3ccc4nc(N5CC[C@H](NC6CCC6)C5)ccc4n3)c(O)cc2n1` [Compound 156], the concentration at half-maximal activity (AC50) with HTT mRNA (setting [4]) was less than 100 nM. Further, the IC50 in the assay with HTT mRNA (setting [5]), with HTT mRNA (setting [3]) and in the assay with MYB was less than 100 nM throughout.
Take `CC(C)N[C@H]1CCN(c2ccc3nc(-c4cc5cn(C)nc5cc4O)ccc3n2)C1` [Compound 171]: the concentration at half-maximal activity (AC50) in the assay with HTT mRNA (setting [4]) is less than 100 nM. The IC50 in the assay on HTT mRNA (setting [5]), in the assay with HTT mRNA (setting [3]) and in the assay on MYB was less than 100 nM each time.
As for `Cc1cn2nc(-c3ccc4nc(N5CCC(NC(C)(C)C)C5)ccc4n3)cc(C)c2n1` (stereo not drawn) [Compound 186], the AC50 in the assay with HTT mRNA (setting [4]) is less than 100 nM. Further, the values for the half-inhibitory concentration (IC50) in the assay with HTT mRNA (setting [5]), in the assay with HTT mRNA (setting [3]) and with MYB were less than 100 nM, less than 100 nM and 100 to 1000 nM, respectively.
Regarding `Cn1cc2cc(-c3ccc4nc(N5CC[C@H](NCC6CC6)C5)ccc4n3)c(O)cc2n1` [Compound 194], the half-maximal activity concentration (AC50) in the assay on HTT mRNA (setting [4]) is less than 100 nM. Besides, the IC50 in the assay on HTT mRNA (setting [5]), in the assay with HTT mRNA (setting [3]) and with MYB was less than 100 nM each time.
Take `CN(C)C1CCN(c2ccc3nc(-c4cc5cn(C)nc5c(F)c4O)ncc3c2)CC1` [Compound 757, 5-{6-[4-(dimethylamino)piperidin-1-yl]quinazolin-2-yl}-7-fluoro-2-methylindazol-6-ol]: the AC50 in the assay with HTT mRNA (setting [1]) lay within 1000 to 10000 nM. Further, the figures for the IC50 in the assay with HTT mRNA (setting [2]), in the assay with HTT mRNA (setting [3]) and in the assay with MYB were 1000 to 10000 nM, 1000 to 10000 nM and less than 100 nM, respectively.
Take `C[C@@H]1CN(c2cc(F)c3nc(-c4cc(F)c5nn(C)cc5c4)ccc3c2)C[C@H](C)N1` [Compound 758, 6-[(3R,5S)-3,5-dimethylpiperazin-1-yl]-8-fluoro-2-(7-fluoro-2-methylindazol-5-yl)quinoline]: in the assay with HTT mRNA (setting [1]), the AC50 lay within 1000 to 10000 nM. The half-inhibitory concentration (IC50) in the assay on HTT mRNA (setting [2]), with HTT mRNA (setting [3]) and in the assay with MYB was 100 to 1000 nM throughout.
Consider `C[C@@H]1CN(c2cc(F)c3nc(-c4cc5cn(C)nc5c(F)c4O)ccc3c2)C[C@H](C)N1` [Compound 763, 5-{6-[(3R,5S)-3,5-dimethylpiperazin-1-yl]-8-fluoroquinolin-2-yl}-7-fluoro-2-methylindazol-6-ol hydrochloride], for which, in the assay on HTT mRNA (setting [1]), the AC50 is 100 to 1000 nM. Besides, the IC50 in the assay on HTT mRNA (setting [2]), with HTT mRNA (setting [3]) and in the assay on MYB was less than 100 nM each time.
On to `C[C@@H]1CN(c2cc(F)c3nc(-c4cc5cn(C)nc5cc4O)ccc3c2)C[C@H](C)N1` [Compound 768, 5-{6-[(3R,5S)-3,5-dimethylpiperazin-1-yl]-8-fluoroquinolin-2-yl}-2-methylindazol-6-ol hydrochloride], for which the AC50 with HTT mRNA (setting [1]) was 1000 to 10000 nM. Further, the IC50 was 1000 to 10000 nM in the assay on HTT mRNA (setting [2]), 1000 to 10000 nM in the assay on HTT mRNA (setting [3]) and less than 100 nM with MYB.
With `Cc1cn2cc(-c3ncc4cc(N5C[C@@H](C)N[C@@H](C)C5)ccc4n3)cc(F)c2n1` [Compound 773, 6-[(3R,5S)-3,5-dimethylpiperazin-1-yl]-2-{8-fluoro-2-methylimidazo[1,2-a]pyridin-6-yl}quinazoline], in the assay with HTT mRNA (setting [1]), the AC50 lay within 1000 to 10000 nM. Further, the values for the IC50 in the assay on HTT mRNA (setting [2]), with HTT mRNA (setting [3]) and with MYB were 1000 to 10000 nM, 1000 to 10000 nM and less than 100 nM, respectively.
Turning to `Cc1cn2cc(-c3nc(C(=O)NC4CCC4)c4cc(N5C[C@@H](C)N[C@@H](C)C5)ccc4n3)cc(F)c2n1` [Compound 779, N-cyclobutyl-6-[(3R,5S)-3,5-dimethylpiperazin-1-yl]-2-{8-fluoro-2-methylimidazo[1,2-a]pyridin-6-yl}quinazoline-4-carboxamide], the half-maximal activity concentration (AC50) in the assay with HTT mRNA (setting [1]) is 1000 to 10000 nM. Besides, the IC50 with HTT mRNA (setting [2]) is 1000 to 10000 nM; with HTT mRNA (setting [3]), 1000 to 10000 nM; in the assay with MYB it was less than 100 nM.
In the case of `Cc1c(O)c(-c2nc(C(N)=O)c3cc(N4C[C@H](C)N[C@@H](C)C4)ccc3n2)cc2cn(C)nc12` [Compound 796], in the assay with HTT mRNA (setting [1]), the AC50 lay in the range of 100 to 1000 nM. Moreover, the IC50 was 100 to 1000 nM in the assay with HTT mRNA (setting [2]), 100 to 1000 nM in the assay with HTT mRNA (setting [3]) and less than 100 nM with MYB.
Consider `C[C@H]1CN(c2ccc3nc(-c4cc5cn(C)nc5cc4O)nc(C(N)=O)c3c2)C[C@H](C)N1` [Compound 797], for which the AC50 with HTT mRNA (setting [1]) fell in the range of 100 to 1000 nM. In addition, the values for the IC50 in the assay with HTT mRNA (setting [2]), in the assay with HTT mRNA (setting [3]) and in the assay with MYB were 1000 to 10000 nM, 1000 to 10000 nM and less than 100 nM, respectively.
With `Cc1cn2cc(-c3ncc4cc(N5C[C@H](C)N[C@@H](C)C5)ccc4n3)cc(F)c2n1` [Compound 803, 6-[(3S,5S)-3,5-dimethylpiperazin-1-yl]-2-{8-fluoro-2-methylimidazo[1,2-a]pyridin-6-yl}quinazoline], the AC50 in the assay on HTT mRNA (setting [1]) lay in the range of 100 to 1000 nM. Besides, the half-maximal inhibitory concentration (IC50) in the assay on HTT mRNA (setting [2]) was 100 to 1000 nM; with HTT mRNA (setting [3]), 100 to 1000 nM; in the assay on MYB, less than 100 nM.
For the molecule `Cc1c(O)c(-c2ccc3cc(N4CCNC5(CC5)C4)cc(F)c3n2)cc2cn(C)nc12` [Compound 805, 5-(6-{4,7-diazaspiro[2.5]octan-7-yl}-8-fluoroquinolin-2-yl)-2,7-dimethylindazol-6-ol], the half-maximal activity concentration (AC50) in the assay on HTT mRNA (setting [1]) lay in the range of 100 to 1000 nM. In addition, the IC50 in the assay on HTT mRNA (setting [2]), in the assay on HTT mRNA (setting [3]) and in the assay with MYB was less than 100 nM throughout.
